Experimental data published in patent publication US11542261B2, “Substituted Imidazo[1,2-a]-pyridines as IRAK 1/4 and FLT3 inhibitors” (CHILDREN'S HOSPITAL MEDICAL CENTER, priority 2016, dated 2023).

Columns and labels:
[1] = system: FLT3 phosphorylation; experiment: Immunoblot of phosphorylated FLT3 in MV4;11 cells; format: cell-based, human; conditions: 50 nM, 24 hours
[2] = system: IRAK4 phosphorylation; experiment: Immunoblot of phosphorylated IRAK4 in MDSL cells; format: cell-based, human; conditions: 24 hours
[3] = molecular target: TNIK (Homo sapiens (Human), UniProt Q9UKE5); experiment: KiNativ in situ kinase profiling in MV4:11 cell lysates; format: biochemical
Protocol: (§1) FIG. 18A depicts the labeling site key. FIG. 18B depicts estimated IC50 values. FIG. 18C depicts the full IC50 list for the various kinases. This is an in situ kinase profiling assay; details and methodology are available at www kinativ com. The assay was performed in lysates of MV-4-11 cells which were pretreated for 15 minutes with the inhibitor before the ATP probe was added.
(§2) The KiNativ® assay is an in situ kinase profiling assay; details and methodology are available at www kinativ com. This assay uses the form of the enzyme that is found in actual cells. The assay is run either in cell lysates or in whole cells, with the drug of interest added either to the cell lysates (i.e. cells that have been popped open) or to the outside of the cell in a whole cell assay prior to making the cell lysates. The whole cell assay is optimal because the drug must pass through the cell membrane to get to the cytoplasm where the kinase resides if the kinase is a cytosolic kinase, as is the case for IRAK, or the location of the kinase domain for the FLT3 receptor kinase domain. In the case of FIG. 18, the KiNativ assay was run on cell lysates from the MV4:11 cells. The MV4:11 cells are a FLT3-ITD positive cell line.
(§3) FLT3 is not captured by the KiNativ technology. The KiNativ assay is done in the actual cellular milieu, where the kinase domains are in their more natural states and subject to more native regulatory elements (e.g. other protein domains within the kinase itself that might not be present in the Reaction Biology assay, and which might otherwise obscure access to the active site by our ligand).

[4] = molecular target: IRAK1 (Homo sapiens (Human), UniProt P51617); experiment: as above; format: biochemical
Protocol: as §1, §2, §3

[5] = molecular target: PCTAIRE3 (Homo sapiens (Human), UniProt Q07002); experiment: as above; format: biochemical
Protocol: as §1, §2, §3

[6] = molecular target: HGK (Homo sapiens (Human), UniProt O95819); experiment: as above; format: biochemical
Protocol: as §1, §2, §3

[7] = molecular target: ABL (Homo sapiens (Human), UniProt P00519); experiment: as above; format: biochemical
Protocol: as §1, §2, §3

[8] = molecular target: PCTAIRE2 (Homo sapiens (Human), UniProt Q00537); experiment: as above; format: biochemical
Protocol: as §1, §2, §3

[9] = molecular target: PCTAIRE1 (Homo sapiens (Human), UniProt Q00536); experiment: as above; format: biochemical
Protocol: as §1, §2, §3

[10] = molecular target: MINK (Homo sapiens (Human), UniProt Q8N4C8); experiment: as above; format: biochemical
Protocol: as §1, §2, §3

[11] = molecular target: CDK7 (Homo sapiens (Human), UniProt P50613); experiment: as above; format: biochemical
Protocol: as §1, §2, §3

[12] = molecular target: GAK (Homo sapiens (Human), UniProt O14976); experiment: as above; format: biochemical
Protocol: as §1, §2, §3

[13] = molecular target: LYN (Homo sapiens (Human), UniProt P07948); experiment: as above; format: biochemical
Protocol: as §1, §2, §3

[14] = system: THP-1 cells; experiment: Inhibitory activity against THP-1 cells; format: cell-based; conditions: THP-1 cells (FLT3 wild type AML); data not shown
[15] = system: MDSL cells; experiment: MDSL cell growth, Cell-titer glow, 72 hours; format: cell-based, human
Protocol: In a 96-well culture plate (Corning Inc. Costar), 25000 cells were plated in 200 μL media per well. In triplicate, 2 μL of the indicated inhibitor (100× in DMSO) was added to each well and cells treated with 2 μL DMSO alone was used as the control. Treated cells were incubated at 37° C. for 72 hours. In a white 96-well assay plate (Corning Inc. Costar), 100 μL of the treated cells were transferred and brought to room temperature. An equal volume of CellTiter-Glo Reagent at room temperature was added to the cells and the plate was rocked for 2 minutes, followed by 10 minutes of rest. Analysis was performed using GloMax 96 microplate Luminometer (Promega) with GloMax Software.
FIG. 10—Methods: (FIG. 10A) Colony formation of MDSL cells was determined in methylcellulose supplemented with 1 μM or 10 μM of the indicated compounds. Colony formation was determined after 10 days.

[16] = system: THP-1 cells; experiment: Synergy of I-24/1481 with venetoclax in THP-1 cells (MTS); format: cell-based; conditions: combined with an IC50 concentration of I-24/1481
Protocol: Data were analyzed by Prism v 8. […] FIG. 14C depicts the relevant heat maps; data in the upper heat map indicates the Bliss Scores, and the lower heat map indicates the individual data points for the various dose response curves. Methods: Day 0: Cell Line Plating in growth media recommended by ATCC using Tecan Fluent in 96 well plate (Eppendorf 0030730011); Day 1: Drug Addition. Venetoclax obtained from Selleckchem (S8048); Day 1→4: Incubate with Drug for 72 Hrs at 37 C, 5% CO2; Day 5: Add 20% original volume MTS (Promega G5440) and incubate for 4 Hrs; Add 25% original volume 10% SDS (Invitrogen 24730-020) to lyse cells and stop conversion of MTS to formazan. Read out is colorimetric at 490 nm using a BioTek Synergy Neo Plate Reader.

[17] = system: MLL-AF9 FLT3-ITD cells
[18] = system: Kasumi-1 cells; experiment: Synergy of I-24/1481 with venetoclax in Kasumi-1 cells (MTS); format: cell-based

Compound: COc1cc2ncc(-c3cccc(NC4CCNC4)n3)n2cc1-c1cnn(C)c1 (centres unmarked) [Compound I-24, 6-(7-methoxy-6-(1-methyl-1H-pyrazol-4-yl)imidazo[1,2-a]pyridin-3-yl)-N-(pyrrolidin-3-yl)pyridin-2-amine]
- FLT3 phosphorylation [1]: inhibited FLT3 phosphorylation comparably to AC220
- IRAK4 phosphorylation [2]: effectively inhibited pIRAK4
- IC50 [3]: < 250 nM
- IC50 [4]: < 250 nM
- IC50 [5]: < 250 nM
- IC50 [6]: < 250 nM
- IC50 [7]: < 250 nM
- IC50 [8]: < 250 nM
- IC50 [9]: < 250 nM
- IC50 [10]: < 250 nM
- IC50 [11]: < 250 nM
- IC50 [12]: < 250 nM
- IC50 [13]: < 250 nM
- concentration without any inhibitory activity [14]: > 10 µM
- MDSL growth [15]: increased ability to inhibit MDSL growth compared to IRAK-Inh

Compound: CC1(C)CCC(CN2CCN(c3ccc(C(=O)NS(=O)(=O)c4ccc(NCC5CCOCC5)c([N+](=O)[O-])c4)c(Oc4cnc5[nH]ccc5c4)c3)CC2)=C(c2ccc(Cl)cc2)C1 [Venetoclax, venetoclax]
- shift of venetoclax IC50 [16]: 15,000 times
- fold shift of Venetoclax IC50 ([17]; combined with 0.2 nM 1481): 50 fold
- IC50 ([17]; read-out: IC50 alone, single agent): 3160 nM
- IC50 ([18]; Homo sapiens, denominator of the dose ratio, read-out: concentration giving the IC50 response when administered alone): 3600 nM
- fold shift of Venetoclax IC50 ([18]; combined with a minimally active concentration of I-24/1481): ~15 fold
